The source of these data is patent US12520844B2 (Bayer Aktiengesellschaft, priority 2020, dated 2026).

A short description of this series: Measurement of Log P values by HPLC on reversed phase columns (EEC directive 79/831 Annex V.A8). The format is physicochemical. Here is the method:
Measurement of Log P values as provided herein was performed according to EEC directive 79/831 Annex V.A8 by HPLC (High Performance Liquid Chromatography) on reversed phase columns with the following methods: • ^[a] Log P value is determined by measurement of LC-UV, in an acidic range, with 0.1% formic acid in water and acetonitrile as eluent (linear gradient from 10% acetonitrile to 95% acetonitrile). • ^[b] Log P value is determined by measurement of LC-UV, in a neutral range, with 0.001 molar ammonium acetate solution in water and acetonitrile as eluent (linear gradient from 10% acetonitrile to 95% acetonitrile). • ^[c] Log P value is determined by measurement of LC-UV, in an acidic range, with 0.1% phosphoric acid and acetonitrile as eluent (linear gradient from 10% acetonitrile to 95% acetonitrile).
If more than one Log P value is available within the same method, all the values are given and separated by “+”.
Calibration was done with straight-chain alkan2-ones (with 3 to 16 carbon atoms) with known Log P values (measurement of Log P values using retention times with linear interpolation between successive alkanones). Lambda-max-values were determined using UV-spectra from 200 nm to 400 nm and the peak values of the chromatographic signals
`Cc1ncc(Oc2cccc(C3CC3)c2F)c(C(=O)NC2CCSc3ccc(F)cc32)n1` (racemic) [Compound I-125]: the LogP was 3.98^[a]. Take `COc1cccc(Oc2nnc(C3CC3)nc2C(=O)NCC(F)(F)c2ccc(C)cc2C)c1` [Compound I-082]: the LogP is 4.19^[a]. To `Cc1ccc(C(F)(F)CNC(=O)c2nc(C)nnc2Oc2cccc(C3CC3)c2)c(C)c1` [Compound I-117] belongs 4.33^[a]. As for `Cc1ncc(Oc2cccc(C3CC3)c2F)c(C(=O)NCCc2ccc(C(F)(F)F)cn2)n1` [Compound I-018], the LogP is 3.31^[a]. `CCOC(=O)c1nc(C2CC2)nnc1Oc1cccc(Cl)c1F` [Compound 1-06]: the LogP was 3.86^[a]. Then `Cc1ncc(Oc2cccc(C3CC3)c2F)c(C(=O)NCCn2cc(Cl)cn2)n1` [Compound I-086], with 2.88^[a]; and `Cc1cc(C)n(CCNC(=O)c2nc(C)ncc2Oc2cccc(C3CC3)c2F)n1` [Compound I-075], with 2.60^[a]. As for `Cc1ccc(C(F)(F)CNC(=O)c2nc(C3CC3)nnc2Oc2cccc(Br)c2F)c(C)c1` [Compound I-025], the LogP is 4.66^[a]. To `Cc1ccc(C(F)(F)CNC(=O)c2nc(C)ncc2Oc2cc(F)c(F)cc2F)c(C)c1` [Compound I-026] belongs 4.02^[a]. As for `C#Cc1cccc(Oc2nnc(C3CC3)nc2C(=O)N/C=C(\F)c2ccc(C)cc2C)c1` [Compound I-038], the LogP is 4.59^[a]. With `Cc1cnn(CCNC(=O)c2nc(C)ncc2Oc2cccc(C3CC3)c2F)c1` [Compound I-052], the LogP was 2.59^[a].

Turning to `Cc1ncc(Oc2cccc(C3CC3)c2F)c(C(=O)NC2CCCc3ccc(Cl)cc32)n1` (stereo not shown) [Compound I-114], the LogP is 4.46^[a].

Regarding `Cc1ccc(C(F)(F)CNC(=O)c2nc(C3CC3)ncc2Br)c(C)c1` [Compound 3-02], the LogP was 4.08^[a]. Consider `Cc1ccc(/C(F)=C/NC(=O)c2nc(C3CC3)nnc2Oc2cccc(Cl)c2F)c(C)c1` [Compound I-105], for which the LogP is 5.36^[a]. As for `CCOC(=O)c1nc(C2CC2)nnc1Oc1cccc(OC)c1` [Compound 1-12], the LogP is 3.37^[a]. As to `Nc1ncc(Oc2cccc(C(F)(F)F)c2)c(C(=O)NCCc2ccc(Br)cc2)n1` [Compound I-095], the LogP was 4.05^[a].

Turning to `Cc1ccc(/C(F)=C/NC(=O)c2nc(C3CC3)nnc2Oc2cccc(C)c2F)c(C)c1` [Compound I-107], the LogP was 4.85^[a]. Then `Cc1ccc(C(F)(F)CNC(=O)c2nc(C)ncc2Oc2ccc3c(c2)CCO3)c(C)c1` [Compound I-128], with 3.59^[a]; and `Cc1ncc(Oc2cccc(C3CC3)c2F)c(C(=O)NC2CCOc3c(C)cccc32)n1` (stereo not shown) [Compound I-113], with 4.02^[a]; and `Cc1nnc(Oc2cccc(C(F)(F)F)c2)c(C(=O)NCC2(c3ccc(Cl)cc3)COC2)n1` [Compound I-110], with 3.35^[a]. To `CC(=O)c1cccc(Oc2cnc(C)nc2C(=O)NCC(F)(F)c2ccc(C)cc2C)c1` [Compound I-022] belongs 3.40^[a]. To `COc1cccc(Oc2cnc(C)nc2C(=O)NCC(F)(F)c2ccc(C)cc2C)c1F` [Compound I-084] belongs 3.71^[a]; to `Cc1ccc(C(F)(F)CNC(=O)c2nc(C3CC3)ncc2Oc2cccc(Cl)c2)c(C)c1` [Compound I-014], 5.00^[a]; to `Cc1ccc(C(F)(F)CNC(=O)c2nc(C)ncc2Oc2ccc3c(c2)CCC3)c(C)c1` [Compound I-104], 4.56^[a]. `Cc1ccc(/C(F)=C/NC(=O)c2nc(C3CC3)nnc2Oc2cccc(C3CC3)c2F)c(C)c1` [Compound I-112]: the LogP is 5.20^[a]. Then `Cc1ccc(C(F)(F)CNC(=O)c2nc(C)ncc2Oc2cccc3c2CCC3)c(C)c1` [Compound I-092], with 4.49^[a]; and `Cc1ccc(C(F)(F)CNC(=O)c2nc(C)ncc2Oc2cccc(Cl)c2)c(C)c1` [Compound I-013], with 4.30^[a]. For the compound `Cc1ccc(C(F)(F)CNC(=O)c2nc(C)ncc2Oc2cccc(-n3ccc(C(F)(F)F)n3)c2)c(C)c1` [Compound I-122], the LogP was 4.54^[a].

Consider `Cc1ncc(Oc2cccc(C3CC3)c2F)c(C(=O)NCCc2ccc3[nH]ccc3c2)n1` [Compound I-029], for which the LogP is 3.21^[a].

`Cc1nnc(Oc2cccc(C(F)(F)F)c2)c(C(=O)NCC(F)(F)c2ccc(Cl)cc2Cl)n1` [Compound I-007]: the LogP is 4.20^[a]. To `Cc1ccc(/C(F)=C\NC(=O)c2nc(C3CC3)nnc2Oc2cccc(Cl)c2F)c(C)c1` [Compound I-109] belongs 5.00^[a]; to `CCOC(=O)c1nc(C2CC2)nnc1Oc1cccc(Br)c1` [Compound 1-10], 3.94^[a]. Consider `Cc1ccc(C(F)(F)CNC(=O)c2nc(C)ncc2Oc2cccc(Cl)c2F)c(C)c1` [Compound I-039], for which the LogP was 4.22^[a]. To `Cc1ncc(Oc2cccc(C3CC3)c2F)c(C(=O)NCCc2cnc(C(F)(F)F)nc2)n1` [Compound I-032] belongs 3.09^[a].

Take `Cc1ccc(C(F)(F)CNC(=O)c2nc(C)ncc2Oc2ccccc2)c(C)c1` [Compound I-058]: the LogP was 3.71^[a]. To `COc1cccc(Oc2cnc(C)nc2C(=O)NCC(F)(F)c2ccc(C)cc2C)c1` [Compound I-019] belongs 3.76^[a]; to `CCOC(=O)c1nc(C2CC2)nnc1Oc1cccc(C(F)(F)F)c1` [Compound 1-05], 3.95^[a].
